Columns and labels:
[1] = target: T1, mouse sEH (Mus musculus, UniProt P34914); experiment: mouse sEH inhibition assay; type: biochemical
T1 sequence (P34914 1-554): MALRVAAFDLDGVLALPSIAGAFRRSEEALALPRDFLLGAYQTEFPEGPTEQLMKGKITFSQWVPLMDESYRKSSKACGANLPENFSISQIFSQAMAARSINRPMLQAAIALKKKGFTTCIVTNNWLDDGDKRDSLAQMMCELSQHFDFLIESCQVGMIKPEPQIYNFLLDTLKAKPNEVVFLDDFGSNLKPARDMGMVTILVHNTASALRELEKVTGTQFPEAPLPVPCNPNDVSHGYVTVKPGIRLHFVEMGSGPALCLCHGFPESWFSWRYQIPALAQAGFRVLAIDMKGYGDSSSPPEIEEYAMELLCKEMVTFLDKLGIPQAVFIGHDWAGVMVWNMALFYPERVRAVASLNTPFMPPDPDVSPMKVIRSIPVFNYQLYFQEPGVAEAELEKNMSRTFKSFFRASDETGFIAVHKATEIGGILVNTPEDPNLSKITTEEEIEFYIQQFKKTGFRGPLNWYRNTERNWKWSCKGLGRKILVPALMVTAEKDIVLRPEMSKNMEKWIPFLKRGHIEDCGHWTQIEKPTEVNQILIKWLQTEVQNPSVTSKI

[2] = plasma stability assay, human plasma; type: in vitro ADME; conditions: pH 7.4
[3] = plasma stability assay, rat plasma; type: in vitro ADME; conditions: 37 °C, pH 7.4, 0-120 min
[4] = system: formalin-induced orofacial pain in female rats; conditions: doses ranging from 0.5 to 5 mg/kg; cited from earlier work

Row | activity in mouse sEH inhibition assay (in words) [1] | half-life at 5 μM [2] [min] | Half-life ([3]; 5 μM) [min] | half-life at 5 μM ([3]; rat, plasma, pH 7.4, Half-life) [min] | Compound | effect on formalin-induced orofacial pain [4]
1 | weak inhibitor | 410 | 31.1 | ~30 | Cc1ccc(-c2csc(-c3ccc(NC(=O)C4CCN(S(=O)(=O)c5ccccc5Cl)CC4)cc3)n2)cc1 [SW-17, 1-((2-chlorophenyl)sulfonyl)-N-(4-(4-(p-tolyl)thiazol-2-yl)phenyl)piperidine-4-carboxamide] | –
2 | – | – | – | – | CNS(=O)(=O)Cc1ccc2[nH]cc(CCN(C)C)c2c1 [sumatriptan] | inhibit formalin-induced orofacial pain

Reference: paper PMC11379592 (BBA Advances, 2024)
